Literature values as cited in US20120165520A1, “PROCESS FOR THE SYNTHESIS OF PRODRUGS OF OPIOIDS” (priority 2010, published 2012).

Key:
[1] = not given; remark: listed apart in the source

Row | Compound | oral bioavailability [%] | fraction of an oral dose converted to dihydromorphine [1]
1 | CCC1(c2cccc(O)c2)CCCCN(C)C1 (centres unmarked) [Meptazinol, meptazinol] | < 10 | –
2 | COc1ccc2c3c1O[C@H]1[C@@H](O)CC[C@H]4[C@@H](C2)N(C)CC[C@@]341 [dihydrocodeine] | – | less than 2%
